Test results from US5945404A, “21-Substituted steroid compound” (priority 1993, dated 1999).
Where two headings read alike, the source gives them in different places.

How the values were obtained:
[1] = test system: granuloma; test: Inhibitory Effects on Granuloma Growth (Paper Disk Method); format: in vivo, male Sprague-Dawley rats; details: ointment 0.1%, 50 mg once a day, 7 days; for change in vivo at 0.1 %, 50 mg: Rattus norvegicus, topical, 168 h
Procedure: (§1) Ointment to be tested was prepared usign white soft paraffin as the base and containing dexamethasone at 0.1% concentration.
Groups of 5 male Sprague-Dawley rats each weighing 150-170 g were used. Under ether anesthesia, the dorsum of animals was closely clipped, and medianly incised. After each one pre-weighed paper disk (8-mm diameter, 1-mm thick, weighing about 30 mg; Toyo-Roshi filter paper) was inserted subcutaneously into both sides of the dorsal incision, the incision was sutured. In order to prevent bacterial infection, penicillin G potassium salt (2,000 units) per rat was intramascularly injected after the surgery. Base or ointment to be tested (50 mg each) was rubbed carefully into the skin over the paper disk inserted site, for 30 seconds once a day for the duration of 7 days. Rats were slipped plastic cangs on to prevent them from licking the drug applied sites. On the 8th day of the test, rats were sacrificed under ether anesthesia, and granulomas were carefully excised. Granulomas were dried at 40° C. for 24 h, and their dry weights were recorded.
Inhibitory effects of dexamethasone derivatives on the weight increase of granuloma of experimental animals as compared with those of control animals are shown as per cent of inhibition ov er the control in Table 1. Figures wihth asterisks in the table indicate signfiicant difference. The same will be applied to the following other tables.

[2] = Effects of 7-day Ointment Rubbing on Organ Weights; format: in vivo, male Sprague-Dawley rats; details: Table 7, 7-day rubbing, 100 mg ointment once daily; for Leukocyte count: normal animal 0.0
Procedure: as §1
Groups of 5 male Sprague-Dawley rats each weighing 150-170 g were used. Under ether anesthesia, the dorsum of animals were closely clipped, and test drug (100 mg) was carefully rubbed in the clipped dorsal area for 30 seconds. Rats were slipped on plastic cang to prevent them from licking the drug-applied area. After the drug rubbing once daily for 7 days, on the 8th day rats were anesthetized with ether. Blood samples were collected, and thymus, spleen, and adrenal were excised and measured their wet weights. Furthermore, leukocyte number was counted with the blood samples collected. Results were expressed as the per cent of change of body weight on the 8th day as compared with that on the 1st day of rubbing. Similarly, the per cent of change in weights of thymus, spleen and adrenal on the 8th day as compared with that of the control animlas were shown.

[3] = test system: croton oil-induced ear edema; test: Inhibitory Effects on Croton oil-induced Ear Lobe Edema; format: in vivo, male ddY mice; details: Table 5, ointment 20 mg, mouse ear lobe
Procedure: as §1
Groups of 10 male ddY mice each weighing about 25 g were used. Ointment to be tested (20 mg) was rubbed in the right-side ear lobe, and, 30 min later, a drop of 4 % croton oil dissolved in either was applied to it. Thirty minute after that treatment, mice were sacrificed. Ear lobes on both sides were punched out in the size of 5-mm diameter, and weighed. Results were expressed by calculating the per cent of weight change of the right edema ear as compared with that of the untreated left ear, and compared with that of the control.

[4] = test system: croton oil-induced granuloma; test: Croton Oil-induced Granuloma (granuloma pouch); format: in vivo, male Sprague-Dawley rats; details: Rattus norvegicus, 168 h, 7 days; for inhibition in vivo at 0.01 mg: 0.01 mg/rat; for inhibition in vivo at 0.1 mg: 0.1 mg/rat; for inhibition in vivo at 1 mg: 1.0 mg/rat
Procedure: Groups of 5 male Sprague-Dawley rats each weighing 160-180 g were used. Under ether anesthesia, the dorsum of animals was closely clipped, and air sac was formed by injecting air (20 ml) subcutaneously. Next day cotton seed oil containing 1% croton oil was injected into the air sac. Drugs to be tested were suspended in the cotton seed oil containing 1% croton oil, and administered. After 7 days, the blood was taken from the animal under ether anesthesia. Then, the granuloma pouch fluid (exudate) was collected, and the fluid volume was measured. The pouch wall formed around granuloma and thymus were also excised and weighed.

[5] = read-out: Weight of granuloma, per cent of change of the controls, rat, paper disk
[6] = rat, paper disk, read-out: Weight of granuloma, per cent of change of the controls
[7] = read-out: Effects on granuloma weight, per cent of inhibition over the control
[8] = read-out: Effects on pouch fluid (exudate) volume, per cent of inhibition over the control

SMILES | change in vivo at 0.1 %, 50 mg [1, 5] [%] | Adrenal weight, per cent of change vs control animals [2] [per cent] | Body weight, per cent of change on the 8th day vs 1st day [2] [per cent] | Spleen weight, per cent of change vs control animals [2] [per cent] | Thymus weight, per cent of change vs control animals [2] [per cent] | Leukocyte count [2] | other results
C[C@@H]1C[C@H]2[C@@H]3CCC4=CC(=O)C=C[C@]4(C)[C@@]3(F)[C@@H](O)C[C@]2(C)[C@@]1(O)C(=O)CO[C@@H]1O[C@H](CO)[C@H](O)[C@H](O)[C@H]1O [Compound 15β, galactosyldexamethasone] | -41 ± 2.6 | -47.1 ± 1.9 | 4.6 ± 0.9 | -43.2 ± 2.1 | -86.0 ± 1.4 | -37.0 ± 6.9 | 
CC(=O)N[C@H]1C(OCC(=O)[C@@]2(O)[C@H](C)C[C@H]3[C@@H]4CCC5=CC(=O)C=C[C@]5(C)[C@@]4(F)[C@@H](O)C[C@@]32C)O[C@H](CO)[C@H](O)[C@@H]1O (stereo partly drawn) [Compound 44', N-acetylgalactosaminyldexamethasone] |  |  |  |  |  |  | Weight of granuloma, per cent of change of the controls ([1]; rat, paper disk, listed as 44'): 3.3 ± 4.7 per cent; Percent of inhibition of ear edema ([3]; listed as 44'): 7.9 ± 7.2%
C[C@@H]1C[C@H]2[C@@H]3CCC4=CC(=O)C=C[C@]4(C)[C@@]3(F)[C@@H](O)C[C@]2(C)[C@@]1(O)C(=O)CO[C@@H]1O[C@H](CO)[C@@H](O)[C@H](O)[C@H]1O [Compound 5β, glucosyldexamethasone] | -47.4 ± 2.9 | -49.6 ± 3.2 | 0.7 ± 1.4 | -56.0 ± 1.6 | -85.7 ± 2.6 | -46.6 ± 8.2 | 
CC(=O)OC[C@H]1O[C@H](OCC(=O)[C@@]2(O)[C@H](C)C[C@H]3[C@@H]4CCC5=CC(=O)C=C[C@]5(C)[C@@]4(F)[C@@H](O)C[C@@]32C)[C@@H](OC(C)=O)[C@@H](OC(C)=O)[C@@H]1OC(C)=O [Compound 29, mannosyldexamethasone (per Ac derivative)] |  |  |  |  |  |  | Weight of granuloma, per cent of change of the controls ([1]; rat, paper disk): -35.7 ± 5.6 per cent; Percent of inhibition of ear edema [3]: 22.1 ± 4.7%
Cc1ccc(C(=O)OC[C@H]2O[C@@H](OCC(=O)[C@@]3(O)CC[C@H]4[C@@H]5C[C@H](F)C6=CC(=O)C=C[C@]6(C)[C@@]5(F)[C@@H](O)C[C@@]43C)[C@H](OC(=O)c3ccc(C)cc3)[C@@H](OC(=O)c3ccc(C)cc3)[C@@H]2OC(=O)c2ccc(C)cc2)cc1 [Compound 105β, glucosyldiflupredonate (p-toluoyl derivative)] |  |  |  |  |  |  | change in vivo at 0.1 %, 50 mg [1, 6]: -1.2 ± 5.7%; inhibition in vivo at 0.01 mg [4, 7]: -5.9 ± 10.9%; inhibition in vivo at 0.01 mg [4, 8]: -8.1 ± 9.4%; inhibition in vivo at 0.1 mg [4, 7]: 22.1 ± 3.7%; inhibition in vivo at 0.1 mg [4, 8]: 24.8 ± 8.8%; inhibition in vivo at 1 mg [4, 7]: 53 ± 6.2%; inhibition in vivo at 1 mg [4, 8]: 76.4 ± 4.3%
CC(=O)N[C@H]1C(OCC(=O)[C@@]2(O)[C@H](C)C[C@H]3[C@@H]4CCC5=CC(=O)C=C[C@]5(C)[C@@]4(F)[C@@H](O)C[C@@]32C)O[C@H](CO)[C@H](O)[C@@H]1O (stereo partly drawn) [Compound 45', N-acetylgalactosaminyldexamethasone] |  |  |  |  |  |  | Weight of granuloma, per cent of change of the controls ([1]; rat, paper disk, listed as 45'): -11.8 ± 10.1 per cent; Percent of inhibition of ear edema ([3]; listed as 45'): 21.0 ± 6.4%
CC1OC(OCC(=O)C2(O)C(C)CC3C4CCC5=CC(=O)C=CC5(C)C4(F)C(O)CC32C)C(O)C(O)C1O (stereo not drawn) [Compound 75β, β-fucosyldexamethasone] |  |  |  |  |  |  | Weight of granuloma, per cent of change of the controls ([1]; rat, paper disk): -10.0 ± 8.8 per cent; Percent of inhibition of ear edema [3]: 22.0 ± 4.7%
CC(=O)OC1C(C)OC(OCC(=O)C2(O)C(C)CC3C4CCC5=CC(=O)C=CC5(C)C4(F)C(O)CC32C)C(OC(C)=O)C1OC(C)=O (stereo not drawn) [Compound 74β, fucosyldexamethasone] |  |  |  |  |  |  | Weight of granuloma, per cent of change of the controls ([1]; rat, paper disk): 1.6 ± 16.2 per cent; Percent of inhibition of ear edema [3]: 14.1 ± 4.5%
Cc1ccc(C(=O)OC[C@H]2O[C@@H](OCC(=O)[C@@]3(O)[C@@H](C)C[C@H]4[C@@H]5C[C@H](F)C6=CC(=O)C=C[C@]6(C)[C@@]5(F)[C@@H](O)C[C@@]43C)[C@H](OC(=O)c3ccc(C)cc3)[C@@H](OC(=O)c3ccc(C)cc3)[C@@H]2OC(=O)c2ccc(C)cc2)cc1 [Compound 107β, glucosyldiflorasone (p-toluoyl derivative)] |  |  |  |  |  |  | change in vivo at 0.1 %, 50 mg [1, 6]: -6.3 ± 5.5%; inhibition in vivo at 0.01 mg [4, 7]: -21.2 ± 19.2%; inhibition in vivo at 0.01 mg [4, 8]: -28.5 ± 18.8%; inhibition in vivo at 0.1 mg [4, 7]: -23.3 ± 21.4%; inhibition in vivo at 0.1 mg [4, 8]: -30.9 ± 20.9%; inhibition in vivo at 1 mg [4, 7]: 28.1 ± 12.5%; inhibition in vivo at 1 mg [4, 8]: 28.8 ± 15.2%
C[C@@H]1C[C@H]2[C@@H]3CCC4=CC(=O)C=C[C@]4(C)[C@@]3(F)[C@@H](O)C[C@]2(C)[C@@]1(O)C(=O)CO[C@H]1O[C@H](CO)[C@H](O)[C@H](O)[C@H]1O [Compound 15α, galactosyldexamethasone] | -39.5 ± 1.8 | -48.3 ± 2.9 | 8.3 ± 1.0 | -35.7 ± 2.3 | -82.2 ± 3.3 | -22.6 ± 7.4 | 
C[C@@H]1C[C@H]2[C@@H]3CCC4=CC(=O)C=C[C@]4(C)[C@@]3(F)[C@@H](O)C[C@]2(C)[C@@]1(O)C(=O)CO[C@H]1O[C@H](CO)[C@@H](O)[C@H](O)[C@@H]1O [Compound 25α, mannosyldexamethasone] | -18 ± 4.8 | -24.4 ± 3.4 | 16.1 ± 1.7 | -18.2 ± 2.2 | -32.6 ± 7.4 | -0.7 ± 9.0 | 
